# Data published in US20110039762A1, “TARGETED ANTIMICROBIAL MOIETIES” (C3 JIAN, INC., priority 2009, published 2011).
# Entries after “also recorded” stand apart in the source; their conditions may differ.
# Test system: microorganisms (e.g., bacteria, yeasts, fungi)
# Test: Targeting peptide binding to target microorganisms (Table 3)
# Details: microorganism the targeting peptide binds; binding in aqueous buffers varied by peptide solubility, preferably 1x PBS
row,Substance,Target(s)
1,1T-24 (EEAEEKLAEVSQAVKRLVR; Peptide with targeting and/or antimicrobial activity) [Peptide 1T-24],P. aeruginosa
2,1T-25 (VGLDVSVLVLFFGLQLLSVLLGAMIR; Peptide with targeting and/or antimicrobial activity) [Peptide 1T-25],S. aureus; also recorded: S. epidermidis; also recorded: C. xerosis; also recorded: C. striatum; also recorded: P. aeruginosa
3,1T-26 (LTILPTTFFAIIVPILAVAFIAYSGFKIKGIVEHKDQW; Peptide with targeting and/or antimicrobial activity) [Peptide 1T-26],S. mutans; also recorded: S. aureus; also recorded: S. epidermidis; also recorded: C. jeikeium; also recorded: C. xerosis; also recorded: C. striatum; also recorded: P. aeruginosa
4,1T-27 (ALFVSLEQFLVVVAKSVFALCHSGTLS; Peptide with targeting and/or antimicrobial activity) [Peptide 1T-27],S. mutans; also recorded: S. aureus; also recorded: S. epidermidis; also recorded: C. jeikeium; also recorded: C. xerosis; also recorded: C. striatum; also recorded: P. aeruginosa
5,1T-28 (VSRDEAMEFIDREWTTLQPAGKSHA; Peptide with targeting and/or antimicrobial activity) [Peptide 1T-28],P. aeruginosa
6,1T-29 (GSVIKKRRKRMSKKKHRKMLRRTRVQRRKLGK; Peptide with targeting and/or antimicrobial activity) [Peptide 1T-29],S. epidermidis; also recorded: C. jeikeium; also recorded: C. xerosis; also recorded: C. striatum; also recorded: P. aeruginosa; also recorded: S. mutans; also recorded: S. aureus
7,1T-30 (GKAKPYQVRQVLRAVDKLETRRKKGGR; Peptide with targeting and/or antimicrobial activity) [Peptide 1T-30],S. aureus; also recorded: S. epidermidis; also recorded: C. xerosis; also recorded: C. striatum; also recorded: P. aeruginosa
8,1T-31 (NATGTDIGEVTLTLGRFS; Peptide with targeting and/or antimicrobial activity) [Peptide 1T-31],S. mutans; also recorded: P. aeruginosa
9,1T-32 (VSFLAGWLCLGLAAWRLGNA; Peptide with targeting and/or antimicrobial activity) [Peptide 1T-32],S. mutans
10,1T-33 (VRTLTILVIFIFNYLKSISYKLKQPFENNLAQSMISI; Peptide with targeting and/or antimicrobial activity) [Peptide 1T-33],S. aureus; also recorded: S. epidermidis; also recorded: C. jeikeium; also recorded: C. xerosis; also recorded: C. striatum; also recorded: P. aeruginosa
11,1T-34 (AFWLNILLTLLGYIPGIVHAVYIIAKR; Peptide with targeting and/or antimicrobial activity) [Peptide 1T-34],S. aureus; also recorded: S. epidermidis; also recorded: C. jeikeium; also recorded: C. xerosis; also recorded: C. striatum; also recorded: P. aeruginosa
12,1T-35 (EICLTLVFPIRGSYSEAAKFPVPIHIVEDGTVELPK; Peptide with targeting and/or antimicrobial activity) [Peptide 1T-35],P. aeruginosa
13,1T-36 (VYRHLRFIDGKLVEIRLERK; Peptide with targeting and/or antimicrobial activity) [Peptide 1T-36],S. aureus; also recorded: S. epidermidis; also recorded: C. jeikeium; also recorded: C. xerosis; also recorded: C. striatum; also recorded: P. aeruginosa
14,1T-37 (YIVGALVILAVAGLIYSMLRKA; Peptide with targeting and/or antimicrobial activity) [Peptide 1T-37],S. mutans; also recorded: S. aereus; also recorded: S. epidermidis; also recorded: C. jeikeium; also recorded: C. xerosis; also recorded: C. striatum; also recorded: P. aeruginosa
15,1T-38 (VMFVLTRGRSPRPMIPAY; Peptide with targeting and/or antimicrobial activity) [Peptide 1T-38],S. mutans; also recorded: S. aereus; also recorded: S. epidermidis; also recorded: C. jeikeium; also recorded: C. xerosis; also recorded: C. striatum; also recorded: P. aeruginosa
16,1T-39 (FGFCVWMYQLLAGPPGPPA; Peptide with targeting and/or antimicrobial activity) [Peptide 1T-39],S. mutans; also recorded: P. aeruginosa
17,1T-40 (QRVSLWSEVEHEFR; Peptide with targeting and/or antimicrobial activity) [Peptide 1T-40],S. mutans; also recorded: P. aeruginosa
18,1T-41 (KRGSKIVIAIAVVLIVLAGVWVW; Peptide with targeting and/or antimicrobial activity) [Peptide 1T-41],S. mutans; also recorded: S. aureus; also recorded: S. epidermidis; also recorded: C. jeikeium; also recorded: C. striatum; also recorded: P. aeruginosa
19,1T-42 (TVLDWLSLALATGLFVYLLVALLRADRA; Peptide with targeting and/or antimicrobial activity) [Peptide 1T-42],S. aureus; also recorded: S. epidermidis; also recorded: C. xerosis; also recorded: C. striatum; also recorded: P. aeruginosa
20,1T-43 (DRCLSVLSWSPPKVSPLI; Peptide with targeting and/or antimicrobial activity) [Peptide 1T-43],C. jeikium; also recorded: P. aeruginosa

row,Substance,Target(s)
1,1T-44 (DPALADFAAGMRAQVRT; Peptide with targeting and/or antimicrobial activity) [Peptide 1T-44],S. mutans; also recorded: S. aureus; also recorded: S. epidermidis; also recorded: C. jeikeium; also recorded: C. striatum; also recorded: P. aeruginosa
2,1T-45 (WTKPSFTDLRLGFEVTLYFANR; Peptide with targeting and/or antimicrobial activity) [Peptide 1T-45],S. aureus; also recorded: S. epidermidis; also recorded: C. striatum; also recorded: P. aeruginosa
3,1T-46 (FSFKQRVMFRKEVERLR; Peptide with targeting and/or antimicrobial activity) [Peptide 1T-46],S. aureus; also recorded: S. epidermidis; also recorded: C. jeikeium; also recorded: C. xerosis; also recorded: C. striatum; also recorded: P. aeruginosa
4,1T-47 (VIKISVPGQVQMLIP; Peptide with targeting and/or antimicrobial activity) [Peptide 1T-47],S. mutans; also recorded: S. epidermidis; also recorded: P. aeruginosa
5,1T-48 (KLQVHHGRATHTLLLQPPLCAPGTIR; Peptide with targeting and/or antimicrobial activity) [Peptide 1T-48],S. aureus; also recorded: S. epidermidis; also recorded: C. jeikeium; also recorded: C. xerosis; also recorded: C. striatum; also recorded: P. aeruginosa
6,1T-49 (SLVRIHDQQPWVTRGAFIDAARTCS; Peptide with targeting and/or antimicrobial activity) [Peptide 1T-49],S. aureus; also recorded: S. epidermidis; also recorded: C. jeikeium; also recorded: P. aeruginosa
7,1T-50 (HSDEPIPNILFKSDSVH; Peptide with targeting and/or antimicrobial activity) [Peptide 1T-50],P. aeruginosa
8,1T-51 (GKPKRMPAEFIDGYGQALLAGA; Peptide with targeting and/or antimicrobial activity) [Peptide 1T-51],S. aureus; also recorded: P. aeruginosa
9,1T-52 (DEYPAKLPLSDKGATEPRRH; Peptide with targeting and/or antimicrobial activity) [Peptide 1T-52],S. aureus; also recorded: C. xerosis; also recorded: P. aeruginosa
10,1T-53 (SDILAEMFEKGELQTLVKDAAAKANA; Peptide with targeting and/or antimicrobial activity) [Peptide 1T-53],P. aeruginosa
11,1T-54 (RWVSCNPSWRIQ; Peptide with targeting and/or antimicrobial activity) [Peptide 1T-54],S. epidermidis; also recorded: C. xerosis; also recorded: C. striatum; also recorded: P. aeruginosa
12,1T-55 (NHKTLKEWKAKWGPEAVESWATLLG; Peptide with targeting and/or antimicrobial activity) [Peptide 1T-55],C. xerosis; also recorded: P. aeruginosa
13,1T-56 (LALIGAGIWMIRKG; Peptide with targeting and/or antimicrobial activity) [Peptide 1T-56],C. xerosis; also recorded: P. aeruginosa
14,1T-57 (RLEYRRLETQVEENPESGRRPMRG; Peptide with targeting and/or antimicrobial activity) [Peptide 1T-57],P. aeruginosa
15,1T-58 (CDDLHALERAGKLDALLSA; Peptide with targeting and/or antimicrobial activity) [Peptide 1T-58],P. aeruginosa
16,1T-59 (AVGNNLGKDNDSGHRGKKHRKHKHR; Peptide with targeting and/or antimicrobial activity) [Peptide 1T-59],S. aureus; also recorded: S. epidermidis; also recorded: P. aeruginosa
17,1T-60 (YLTSLGLDAAEQAQGLLTILKG; Peptide with targeting and/or antimicrobial activity) [Peptide 1T-60],S. aureus; also recorded: S. epidermidis; also recorded: C. jeikeium; also recorded: C. striatum; also recorded: P. aeruginosa
18,1T-61 (HATLLPAVREAISRQLLPALVPRG; Peptide with targeting and/or antimicrobial activity) [Peptide 1T-61],P. aeruginosa
19,1T-62 (GCKGCAQRDPCAEPEPYFRLR; Peptide with targeting and/or antimicrobial activity) [Peptide 1T-62],S. epidermidis; also recorded: P. aeruginosa
20,1T-63 (EPLILKELVRNLFLFCYARALR; Peptide with targeting and/or antimicrobial activity) [Peptide 1T-63],S. aureus; also recorded: S. epidermidis; also recorded: C. jeikeium; also recorded: C. xerosis; also recorded: C. striatum; also recorded: P. aeruginosa
